Experimental data reported in patent US10550130B2, “Benzo-thiazolo-imidazole compounds and uses thereof” (KING SAUD UNIVERSITY, priority 2015, dated 2020).

Columns and labels:
Type in all cases: cell-based
MDA-MB-468 = assay: Annexin V binding by flow cytometry (apoptosis)
Procedure: (§1) It is known that loss of phospholipid asymmetry of the plasma membrane is an early event of apoptosis. The annexin V binds to negatively charged phospholipids, like phosphatidylserine. During apoptosis, the cells react to annexin V once chromatin condenses but before the plasma membrane loses its ability to exclude propidium iodide (PI).
(§2) Annexin-V staining was performed by using Vybrant Apoptosis Assay Kit #2 (Molecular Probes) following the manufacturer's recommendations. Annexin-V stained cells were analyzed by flow cytometry, measuring the fluorescence emission between 515 nm to 545 nm.
(§3) To evaluate the selective-apoptotic effect of the compound in cancer cells but not normal cells, the cancer cell lines SKBR3, MDA-MB-468, and normal cells MCF-10 A, HSFN1 (human foreskin cells) and BM4 (bone marrow derived mesenchymal stem cells) were used. […] Upon treatment of cells with 20 μM for 48 h, cells were stained with Annexin-V and PI and binding of Annexin-V and PI to the cells was determined by flow cytometry.
(§4) In a next step, it was investigated whether there was a correlation between Numb protein expression and sensitivity of a cell line to the apoptotic effects of KSA-101696. Apoptotic cells were determined by Annexin-V staining as described in Example 1.

SKBR-3 = assay: Annexin V binding by flow cytometry (apoptosis)
Procedure: as §1, §2, §3, §4

[1] = system: ALDH+ CD24low/CD44High breast cancer stem cells (from MDA-MB-468 cells); assay: Apoptosis in sorted breast cancer stem cells versus differentiated cells; conditions: 10 μM, two days; ALDH+ CD24low/CD44High vs ALDH- CD24High/CD44low from MDA-MB-468
Procedure: MDA-MB-468 Cells harvested, washed and incubated in aldefluor assay buffer containing an ALDH substrate (BAAA (BODIPY®-aminoacetaldehyde). For negative control, half of the cells of each sample was removed to another FACS tube and incubated under identical condition with DEAB, a specific inhibitor of ALDH enzyme. Then the cells were stained with the following directly conjugated monoclonal antibodies anti-mouse CD44-APC-Cy7 (Biolegend), anti-mouse CD24-Pacific Blue (EXBIO Praha, a.s.). All analyses and cell sorting were performed on a FACSAria™ cell sorter (BD Biosciences). Debris and cell clusters were excluded during side-scatter and forward-scatter analyses.
ALDH^+ CD24^low/CD44^High breast cancer stem cells were sorted and cultured for 24 h. Cells were then treated with 10 μM of the compound KSA-101696 for two days. At the same time, ALDH^− CD24^High/CD44^low breast cancer differentiated cells were used as a negative control to evaluate the selective apoptotic activity of the compound against breast cancer stem cells compared with differentiated phenotype from the same bulk population of MDA-MB-468 cells.

SP cells of BT-474 = assay: Mammosphere formation assay; conditions: 5 μM, 7 days old mammospheres
Procedure: (§5) Cell were harvested and counted by using trypan blue to exclude the dead cells. Cells cultured in suspension (1000 cells/100 μL) in serum-free mammary epithelium basal medium, supplemented with B27 supplement 1:50; (GIBCO), 20 ng/mL EGF (epidermal growth factor; Preprotech), 5 μg/mL insulin (Sigma), 1% Antibiotic-Antimycotic (GIBCO) and 0.5 μg/ml hydrocortisone (Sigma), as described previously (Dontu et al.). Mammospheres were allowed to grow for 7 days, then treated for 72 h by either control media (0.1% DMSO) or media containing different concentrations of the compound. Mammospheres were counted on a Leitz Labovert inverted Microscope. Mammosphere size was measured and a picture was taken on a Evos transmitted light microscope.
(§6) It is known that one of the properties of stem/progenitor cells is their ability to survive under anchorage-independent conditions and generate mammospheres, which are composed of a small number of stem cells. Given that CSCs generally make up for a small minority of the cells within cancer cell populations, the dye DyeCycle Violet was used to isolate SP cells (side population cells; the side population is enriched for stem/progenitor cells), through a BD FACSAria™ cell sorter. Subsequently, the isolated SP cells were used in a Mammosphere Formation Assay. SP cells of MCF-7 and BT-474 formed more mammospheres than non-SP cells (see FIG. 4A).
(§7) Treatment of 7 days old mammospheres of both cell lines with 5 μM of KSA-101696 decreased the number of mammospheres formed by 50% compared to DMSO treatment (FIG. 4A).

SP cells of MCF-7 = assay: Mammosphere formation assay
Procedure: as §5, §6, §7

[2] = system: colony forming SKBR3 cells; assay: 2-D colony formation assay; conditions: 5000 viable cells from the ALDEFLUOR assay cells; 60 mm dish
Procedure: Cells were treated with different concentration of the compound or control medium containing 0.1% DMSO for 72 h. Cells were harvested and counted by using trypan blue to exclude the dead cells. A 5000 viable cells of treated and control cells were suspended in 3 ml DMEM supplemented with 10% FBS (Cambrex Bio Science) and seeded in a 60 mm tissue culture dish (Falcon, BD). The next day, a new fresh media was added and the cells were allowed to grow forming colonies for 14 d. The cells were then stained with methylene blue (Sigma-Aldrich, St. Louis, Mo., USA) and colonies containing more than 20 cells were counted.
Thus, from the same cells as used in the ALDEFLUOR assay, 5000 viable cells were seeded in a 60 mm tissue culture dish.

[3] = system: THP-1 acute monocytic leukemia cells; assay: CD34 positive cell population by flow cytometry; conditions: 48 h
Procedure: THP-1 leukemic cells were cultured in RPMI medium in […] flask and treated with KSA-101696 for 48 h. Cells were then washed and stained with anti-CD34-FITC (BD biosciences) for 30 min at room temperature. The hematopoietic stem cell population (CD34 positive cells) was analyzed by flow cytometry to evaluate the effect of KAS-101696 on hematopoietic stem cells of leukemic origin.

SMILES: COc1ccc(-c2csc3nc4ccccc4n23)cc1 [KSA-101696, 3-(4-methoxyphenyl)benzo[4,5]imidazo[2,1-b]thiazole]
- apoptosis (Annexin-V) in relation to Numb expression (MDA-MB-468; MDA-MB-468, low levels of Numb expression, FIG. 9B): increased apoptosis
- apoptosis (Annexin-V and PI) (MDA-MB-468; MDA-MB-468, 20 μM, 48 h): induced apoptosis
- apoptosis (Annexin-V) in relation to Numb expression (SKBR-3; SKBR-3, low levels of Numb expression, FIG. 9B): increased apoptosis
- apoptosis (Annexin-V and PI) (SKBR-3; SKBR-3, 20 μM, 48 h): induced apoptosis
- induced apoptosis in cancer stem cells compared to differentiated breast cancer cells [1]: two-fold increase
- decrease of number of mammospheres formed compared to DMSO (SP cells of BT-474): 50%
- decrease of number of mammospheres formed compared to DMSO (SP cells of MCF-7; MCF-7, 5 μM, 7 days old mammospheres): 50%
- size of treated mammospheres (SP cells of MCF-7; cell line not specified (FIG. 4B)): reduction in the size
- inhibition of colony forming cells [2]: showed the same activity in inhibition of colony forming cells
- CD34+ cells percentage [3]: reduction of CD34^+ cells percentage
